Experimental data reported in patent US20040248765A1, “Tumour targeting prodrugs activated by metallo matrixproteinases” (priority 2001, published 2004).
Where a SMILES comes first, the peptide text is derived from it. [ ]: non-standard residue; d: D form. The star is where a group is joined. NH(CH2)3NH(1-anthraquinonyl) = O=C1c2ccccc2C(=O)c2c(NCCCN*)cccc21; Nle = CCCC[C@H](N)C(=O)O; Nva = CCC[C@H](N)C(=O)O; Mob = COc1ccc(C*)cc1

| SMILES | melting point |
| --- | --- |
| NCC(=O)N[C@@H](Cc1ccccc1)C(=O)N1CCC[C@@H]1C(=O)NCCCNc1cccc2c1C(=O)c1ccccc1C2=O.O=C(O)C(F)(F)F | 128 to 130 °C |
| COc1ccc(CSC[C@H](N)C(=O)NCC(=O)N[C@@H](CC(C)C)C(=O)N2CCC[C@H]2C(=O)NCCCNc2cccc3c2C(=O)c2ccccc2C3=O)cc1.O=C(O)C(F)(F)F (H-C(Mob)GLP-{NH(CH2)3NH(1-anthraquinonyl)}) | 182 °C |
| NCC(=O)N1CCC[C@H]1C(=O)NCCCNc1cccc2c1C(=O)c1ccccc1C2=O.O=C(O)C(F)(F)F | 160 to 166 °C |
| CCC[C@H](NC(=O)[C@H](Cc1ccc(O)cc1)NC(=O)[C@H](C)NC(=O)[C@@H](C)N)C(=O)NCC(=O)N[C@@H](CC(C)C)C(=O)N1CCC[C@H]1C(=O)NCCCNc1cccc2c1C(=O)c1ccccc1C2=O.O=C(O)C(F)(F)F | 190 °C |
| CCC[C@H](NC(=O)CN)C(=O)N1CCC[C@H]1C(=O)NCCCNc1cccc2c1C(=O)c1ccccc1C2=O.O=C(O)C(F)(F)F | 196 °C |
| CCC[C@H](N)C(=O)NCC(=O)N[C@@H](CC(C)C)C(=O)N1CCC[C@H]1C(=O)NCCCNc1cccc2c1C(=O)c1ccccc1C2=O.O=C(O)C(F)(F)F (H-[Nva]GLP-{NH(CH2)3NH(1-anthraquinonyl)}) | 210 °C |
| CC(C)C[C@H](NC(=O)CN)C(=O)N[C@@H](C)C(=O)N[C@@H](CC(C)C)C(=O)N1CCC[C@H]1C(=O)NCCCNc1cccc2c1C(=O)c1ccccc1C2=O.O=C(O)C(F)(F)F (H-GLALP-{NH(CH2)3NH(1-anthraquinonyl)}) | 192 to 194 °C |
| CCCC[C@H](N)C(=O)NCC(=O)N[C@@H](CC(C)C)C(=O)N1CCC[C@H]1C(=O)NCCCNc1cccc2c1C(=O)c1ccccc1C2=O.O=C(O)C(F)(F)F (H-[Nle]GLP-{NH(CH2)3NH(1-anthraquinonyl)}) | 169 °C |
| CSC[C@H](NC(=O)[C@H](Cc1ccc(O)cc1)NC(=O)[C@H](C)N)C(=O)NCC(=O)N[C@@H](CC(C)C)C(=O)N1CCC[C@H]1C(=O)NCCCNc1cccc2c1C(=O)c1ccccc1C2=O.O=C(O)C(F)(F)F (H-AYC(Me)GLP-{NH(CH2)3NH(1-anthraquinonyl)}) | 166 to 170 °C |
| CC(C)C[C@H](N)C(=O)NCC(=O)N1CCC[C@@H]1C(=O)NCCCNc1cccc2c1C(=O)c1ccccc1C2=O.O=C(O)C(F)(F)F | 174 to 178 °C |
| CCC[C@H](N)C(=O)N[C@@H](CC(C)C)C(=O)NCC(=O)N[C@@H](CC(C)C)C(=O)N1CCC[C@H]1C(=O)NCCCNc1cccc2c1C(=O)c1ccccc1C2=O.O=C(O)C(F)(F)F (H-[Nva]LGLP-{NH(CH2)3NH(1-anthraquinonyl)}) | 189 °C |
| CC[C@H](C)[C@H](NC(=O)[C@H](Cc1ccccc1)NC(=O)[C@H](CC(C)C)NC(=O)[C@@H](C)N)C(=O)NCC(=O)N[C@@H](Cc1ccccc1)C(=O)N1CCC[C@@H]1C(=O)NCCCNc1cccc2c1C(=O)c1ccccc1C2=O.O=C(O)C(F)(F)F | 144 to 146 °C |
| CC(C)C[C@H](NC(=O)[C@@H](N)Cc1ccccc1)C(=O)NCC(=O)N1CCC[C@@H]1C(=O)NCCCNc1cccc2c1C(=O)c1ccccc1C2=O.O=C(O)C(F)(F)F | 170 °C |
| NCCCNc1cccc2c1C(=O)c1ccccc1C2=O | 196 °C |
| CCC[C@H](NC(=O)[C@@H](N)Cc1ccc(O)cc1)C(=O)NCC(=O)N[C@@H](CC(C)C)C(=O)N1CCC[C@H]1C(=O)NCCCNc1cccc2c1C(=O)c1ccccc1C2=O.O=C(O)C(F)(F)F (H-Y[Nva]GLP-{NH(CH2)3NH(1-anthraquinonyl)}) | 174 °C |
| CSC[C@H](NC(=O)[C@H](C)NC(=O)[C@H](C)NC(=O)[C@@H](C)N)C(=O)NCC(=O)N[C@@H](CC(C)C)C(=O)N1CCC[C@H]1C(=O)NCCCNc1cccc2c1C(=O)c1ccccc1C2=O.O=C(O)C(F)(F)F | 191 °C |
| CCC[C@H](NC(=O)CNC(=O)[C@@H](N)CC(C)C)C(=O)N1CCC[C@H]1C(=O)NCCCNc1cccc2c1C(=O)c1ccccc1C2=O.O=C(O)C(F)(F)F (H-LG[Nva]P-{NH(CH2)3NH(1-anthraquinonyl)}) | 172 to 176 °C |
| CC(C)C[C@H](NC(=O)[C@H](C)NC(=O)[C@H](C)NC(=O)[C@H](N)CCCCN)C(=O)NCC(=O)N[C@@H](CC(C)C)C(=O)N1CCC[C@H]1C(=O)NCCCNc1cccc2c1C(=O)c1ccccc1C2=O.O=C(O)C(F)(F)F.O=C(O)C(F)(F)F | 196 °C |
| CC(C)C[C@H](NC(=O)[C@H](Cc1ccccc1)NC(=O)[C@@H](N)CC(C)C)C(=O)N1CCC[C@H]1C(=O)NCCCNc1cccc2c1C(=O)c1ccccc1C2=O.O=C(O)C(F)(F)F (H-LFLP-{NH(CH2)3NH(1-anthraquinonyl)}) | 184 to 186 °C |
| CC(C)C[C@H](NC(=O)[C@H](Cc1ccc(O)cc1)NC(=O)[C@H](C)N)C(=O)NCC(=O)N[C@@H](CC(C)C)C(=O)N1CCC[C@H]1C(=O)NCCCNc1cccc2c1C(=O)c1ccccc1C2=O.O=C(O)C(F)(F)F (H-AYLGLP-{NH(CH2)3NH(1-anthraquinonyl)}) | 182 °C |

| SMILES | melting point |
| --- | --- |
| CCC[C@H](NC(=O)[C@H](C)N)C(=O)N[C@@H](CC(C)C)C(=O)NCC(=O)N[C@@H](CC(C)C)C(=O)N1CCC[C@H]1C(=O)NCCCNc1cccc2c1C(=O)c1ccccc1C2=O.O=C(O)C(F)(F)F (H-A[Nva]LGLP-{NH(CH2)3NH(1-anthraquinonyl)}) | 192 °C |
| CC[C@H](C)[C@H](NC(=O)[C@@H](N)Cc1ccccc1)C(=O)NCC(=O)N[C@@H](Cc1ccccc1)C(=O)N1CCC[C@@H]1C(=O)NCCCNc1cccc2c1C(=O)c1ccccc1C2=O.O=C(O)C(F)(F)F | 130 to 134 °C |
| CC(C)C[C@H](NC(=O)[C@H](Cc1ccccc1)NC(=O)CN)C(=O)NCC(=O)N1CCC[C@@H]1C(=O)NCCCNc1cccc2c1C(=O)c1ccccc1C2=O.O=C(O)C(F)(F)F | 154 to 156 °C |
| CCCC[C@H](NC(=O)[C@H](C)N)C(=O)NCC(=O)N[C@@H](CC(C)C)C(=O)N1CCC[C@H]1C(=O)NCCCNc1cccc2c1C(=O)c1ccccc1C2=O.O=C(O)C(F)(F)F (H-A[Nle]GLP-{NH(CH2)3NH(1-anthraquinonyl)}) | 185 °C |
| CC(C)C[C@H](NC(=O)[C@H](C)N)C(=O)NCC(=O)N[C@@H](CC(C)C)C(=O)N1CCC[C@@H]1C(=O)NCCCNc1cccc2c1C(=O)c1ccccc1C2=O.O=C(O)C(F)(F)F | 168 °C |
| CC(C)C[C@H](NC(=O)CNC(=O)[C@H](C)NC(=O)[C@@H](C)N)C(=O)N[C@@H](Cc1ccccc1)C(=O)N[C@@H](CC(C)C)C(=O)N1CCC[C@H]1C(=O)NCCCNc1cccc2c1C(=O)c1ccccc1C2=O.O=C(O)C(F)(F)F | 190 to 194 °C |
| CC(C)C[C@H](NC(=O)[C@@H](N)Cc1ccccc1)C(=O)NCC(=O)N1CCC[C@H]1C(=O)NCCCNc1cccc2c1C(=O)c1ccccc1C2=O.O=C(O)C(F)(F)F | 164 to 168 °C |
| CC[C@H](C)[C@H](N)C(=O)NCC(=O)N[C@@H](Cc1ccccc1)C(=O)N1CCC[C@@H]1C(=O)NCCCNc1cccc2c1C(=O)c1ccccc1C2=O.O=C(O)C(F)(F)F | 120 to 126 °C |
| CC[C@H](C)[C@H](NC(=O)[C@H](Cc1ccccc1)NC(=O)[C@@H](N)CC(C)C)C(=O)NCC(=O)N[C@@H](Cc1ccccc1)C(=O)N1CCC[C@@H]1C(=O)NCCCNc1cccc2c1C(=O)c1ccccc1C2=O.O=C(O)C(F)(F)F | 168 to 170 °C |
| CC(C)C[C@H](NC(=O)[C@H](Cc1ccccc1)NC(=O)CN)C(=O)NCC(=O)N1CCC[C@H]1C(=O)NCCCNc1cccc2c1C(=O)c1ccccc1C2=O.O=C(O)C(F)(F)F | 157 °C |
| CC(C)C[C@H](NC(=O)CNC(=O)[C@H](C)N)C(=O)N[C@@H](Cc1ccccc1)C(=O)N[C@@H](CC(C)C)C(=O)N1CCC[C@H]1C(=O)NCCCNc1cccc2c1C(=O)c1ccccc1C2=O.O=C(O)C(F)(F)F (H-AGLFLP-{NH(CH2)3NH(1-anthraquinonyl)}) | 186 °C |
| CC(C)C[C@H](NC(=O)[C@H](Cc1ccc(O)cc1)NC(=O)[C@H](C)NC(=O)[C@@H](C)N)C(=O)NCC(=O)N[C@@H](CC(C)C)C(=O)N1CCC[C@H]1C(=O)NCCCNc1cccc2c1C(=O)c1ccccc1C2=O.O=C(O)C(F)(F)F | 190 to 194 °C |
| CCC[C@H](N)C(=O)N1CCC[C@H]1C(=O)NCCCNc1cccc2c1C(=O)c1ccccc1C2=O.O=C(O)C(F)(F)F | 190 to 194 °C |
| CCC[C@H](NC(=O)[C@H](C)NC(=O)[C@@H](C)N)C(=O)N[C@@H](CC(C)C)C(=O)NCC(=O)N[C@@H](CC(C)C)C(=O)N1CCC[C@H]1C(=O)NCCCNc1cccc2c1C(=O)c1ccccc1C2=O.O=C(O)C(F)(F)F | 174 to 178 °C |
| CC(C)C[C@H](NC(=O)[C@@H](N)Cc1ccc(O)cc1)C(=O)NCC(=O)N[C@@H](CC(C)C)C(=O)N1CCC[C@H]1C(=O)NCCCNc1cccc2c1C(=O)c1ccccc1C2=O.O=C(O)C(F)(F)F (H-YLGLP-{NH(CH2)3NH(1-anthraquinonyl)}) | 184 to 188 °C |
| CCC[C@H](NC(=O)CNC(=O)[C@H](CC(C)C)NC(=O)[C@H](C)NC(=O)[C@H](C)NC(=O)[C@@H](C)N)C(=O)N1CCC[C@H]1C(=O)NCCCNc1cccc2c1C(=O)c1ccccc1C2=O.O=C(O)C(F)(F)F | 192 to 196 °C |
| CSC[C@H](NC(=O)[C@H](Cc1ccc(O)cc1)NC(=O)[C@H](C)NC(=O)[C@@H](C)N)C(=O)NCC(=O)N[C@@H](CC(C)C)C(=O)N1CCC[C@H]1C(=O)NCCCNc1cccc2c1C(=O)c1ccccc1C2=O.O=C(O)C(F)(F)F | 195 °C |
| CSC[C@H](NC(=O)[C@H](C)NC(=O)[C@H](C)N)C(=O)NCC(=O)N[C@@H](CC(C)C)C(=O)N1CCC[C@H]1C(=O)NCCCNc1cccc2c1C(=O)c1ccccc1C2=O.O=C(O)C(F)(F)F (H-AAC(Me)GLP-{NH(CH2)3NH(1-anthraquinonyl)}) | 162 °C |
| CCC[C@H](NC(=O)CNC(=O)[C@H](CC(C)C)NC(=O)[C@H](C)NC(=O)[C@H](C)N)C(=O)N1CCC[C@H]1C(=O)NCCCNc1cccc2c1C(=O)c1ccccc1C2=O.O=C(O)C(F)(F)F (H-AALG[Nva]P-{NH(CH2)3NH(1-anthraquinonyl)}) | 188 °C |
| CCCC[C@H](NC(=O)[C@H](C)NC(=O)[C@H](C)N)C(=O)NCC(=O)N[C@@H](CC(C)C)C(=O)N1CCC[C@H]1C(=O)NCCCNc1cccc2c1C(=O)c1ccccc1C2=O.O=C(O)C(F)(F)F (H-AA[Nle]GLP-{NH(CH2)3NH(1-anthraquinonyl)}) | 176 °C |
